According to patent US4721775A, “Effective peptides related to the luteinizing hormone releasing hormone from L-amino acids” (Board of Regents, The University of Texas System, priority 1985, dated 1988):
Several values for one entry are separate records, joined by “and”; a condition that tells them apart may be missing. Equal values may be shown once. Entries after “also recorded” stand apart in the source; their conditions may differ. Non-standard residues stand in square brackets, D forms with d. Residues, ends and D or L forms follow the SMILES beside them. pGlu = O=C1CC[C@@H](C(=O)O)N1

Columns and labels:
Assay type in all cases: in vivo
[1] = tested on: release of LH; experiment: Release of LH in rats after sc injection; conditions: for release of LH compared with LHRH: sc injection, dose and time as stated in the source
Text: (§1) The data on the release of LH and FSH in rats by modifications of LHRH with one structural change are in Table II.
(§2) Exclusive of the salmon-LHRH, only one of the six decapeptides with two structural changes had significant activity.

[2] = tested on: release of FSH; experiment: Release of FSH in rats after sc injection; conditions: dose and time as stated in the source
[3] = tested on: release of FSH; experiment: Release of FSH in rats after sc injection; conditions: for FSH % change: LHRH = 100
Text: as §1, §2

[4] = 15 min. after sc injection, 100 ng, experiment marked *
[5] = 15 min. after sc injection, 1000 ng, experiment marked *
[6] = release 15 min. after sc injection, dosage of peptide 50 ng
[7] = release 15 min. after sc injection, dosage of peptide 100 ng
[8] = release 15 min. after sc injection, dosage of peptide 1000 ng
[9] = release 30 min. after sc injection, dosage of peptide 50 ng
[10] = release 30 min. after sc injection, dosage of peptide 1000 ng
[11] = release 60 min. after sc injection, dosage of peptide 300 ng
[12] = release 60 min. after sc injection, dosage of peptide 3000 ng

`N=C(N)NCCC[C@H](NC(=O)[C@H](Cc1c[nH]c2ccccc12)NC(=O)CNC(=O)[C@H](Cc1c[nH]cn1)NC(=O)[C@H](CO)NC(=O)[C@H](Cc1c[nH]c2ccccc12)NC(=O)[C@H](Cc1c[nH]cn1)NC(=O)[C@@H]1CCC(=O)N1)C(=O)N1CCC[C@H]1C(=O)NCC(N)=O` [[His^5 Trp^7]--LHRH, p-Glu His Trp Ser His Gly Trp Arg Pro Gly-NH2] ([pGlu]HWSHGWRPG-NH2) was tested, and the LH % change ([1]; 15 min. after sc injection, 50 ng, LHRH = 100) was 188%, the LH [1, 4] was 13 ng/mL and the LH [1, 5] was 23 ng/mL. It also gave an LH % change ([1]; 15 min. after sc injection, 1000 ng, experiment marked *, LHRH* = 100) of 59%, an LH % change ([1]; 30 min. after sc injection, 50 ng, LHRH = 100) of 67% and an LH % change ([1]; 30 min. after sc injection, 1000 ng, LHRH = 100) of 40%. The LH [1, 6] was 30 ± 3 ng/mL, the LH [1, 7] was 30 ng/mL and the LH [1, 8] was 39 ng/mL and 78 ng/mL. It also gave an LH [1, 9] of 12 ng/mL, an LH [1, 10] of 51 ng/mL and an LH [1, 11] of 26.0 ng/mL. The LH [1, 12] was 138 ng/mL, the “release of LH compared with LHRH” value [1] was “as active as LHRH; also recorded: significantly positive, but less than that at the higher dosage; also recorded: released significantly more LH and FSH than did LHRH at a dosage of 50 ng; also recorded: equivalent to that released by the same dosage of LHRH; also recorded: significantly positive, but lower than that released at the higher dose level; also recorded: both peptides had comparable activities” and the “release of FSH compared with LHRH” value [2] was “as active as LHRH; also recorded: equivalent to that from LH; also recorded: released significantly more LH and FSH than did LHRH at a dosage of 50 ng; also recorded: equivalent to that released by the same dosage of LHRH; also recorded: higher than that for LH; also recorded: both peptides had comparable activities”. The FSH % change ([3]; 15 min. after sc injection, 50 ng) was 121%, the FSH [3, 4] was 346 ng/mL and the FSH [3, 5] was 456 ng/mL. The FSH [3, 6] was 663 ng/mL, the FSH [3, 7] was 502 ng/mL and the FSH [3, 8] was 562 ng/mL and 429 ng/mL. It also gave an FSH [3, 9] of 387 ng/mL, an FSH [3, 10] of 857 ng/mL and an FSH [3, 11] of 624 ng/mL. For the same compound, the FSH [3, 12] was 1448 ng/mL.
In the case of `CC(C)C[C@H](NC(=O)CNC(=O)[C@H](Cc1c[nH]cn1)NC(=O)[C@H](CO)NC(=O)[C@H](Cc1c[nH]c2ccccc12)NC(=O)[C@H](Cc1c[nH]cn1)NC(=O)[C@@H]1CCC(=O)N1)C(=O)N[C@@H](CCCNC(=N)N)C(=O)N1CCC[C@H]1C(=O)NCC(N)=O` [[His^5]--LHRH, p-Glu His Trp Ser His Gly Leu Arg Pro Gly-NH2], the LH [1, 11] is reported as 14 ng/mL, the LH [1, 12] is reported as 142 ± 29 ng/mL and 142 ng/mL and the “release of LH compared with LHRH” value [1] is reported as “as active as LHRH at two dose levels; also recorded: equivalent to LHRH in the release of LH”. The “release of FSH compared with LHRH” value [2] was “twice as active as LHRH at the high dosage; also recorded: two times as effective in the release of FSH at the higher dose level”, the FSH % change ([3]; 60 min. after sc injection, 3000 ng) was 229% and the FSH [3, 11] was 652 ng/mL. It also gave an FSH [3, 12] of 2684 ng/mL.
